Measurements reported in patent US20160256449A1, “H3 RECEPTOR ANTAGONIST FOR USE IN THE TREATMENT OF ALZHEIMER'S DISEASE” (SANOFI, priority 2013, published 2016).

System: patients with mild to moderate Alzheimer's disease
Assay: clinical study, Neuropsychiatric Inventory (NPI) domain scores
Type: in vivo, human
Experimental: A randomized, double-blind, parallel-group, placebo-controlled clinical trial was performed to study the effect on cognitive performance, safety, and tolerability of 2-(cyclohexylmethyl)-N-{2-[(2S)-1-methylpyrrolidin-2-yl]ethyl}-1,2,3,4-tetrahydroisoquinoline-7-sulfonamide difumarate monohydrate as adjunct treatment to donepezil.
More specifically, patients with mild to moderate Alzheimer's disease on stable donepezil therapy were randomized to receive doses of 0.5 mg, 2 mg, or 5 mg/day of 2-(cyclohexylmethyl)-N-{2-[(2S)-1-methylpyrrolidin-2-yl]ethyl}-1,2,3,4-tetrahydroisoquinoline-7-sulfonamide difumarate monohydrate or placebo for 24 weeks, with a 10 week follow-up period.
Patients were randomized to receive 0.5 mg, 2 mg, or 5 mg of 2-(cyclohexylmethyl)-N-{2-[(2S)-1-methylpyrrolidin-2-yl]ethyl}-1,2,3,4-tetrahydroisoquinoline-7-sulfonamide difumarate monohydrate (measured in base form), or matching placebo once a day, with donepezil (5 mg or 10 mg in the form the patient took prior to enrollment), for 24 weeks, with or without food.
[…] (NPI) domain scores of irritability/lability, anxiety, agitation/aggression, sleep and nighttime behavior disorders, aberrant motor behaviour, apathy/indifference, appetite/eating change, delusions, depression/dysphoria, disinhibition, elation/euphoria, and hallucinations.

Structure (SMILES): CN1CCC[C@H]1CCNS(=O)(=O)c1ccc2c(c1)CN(CC1CCCCC1)CC2 [API, 2-(cyclohexylmethyl)-N-{2-[(2S)-1-methylpyrrolidin-2-yl]ethyl}-1,2,3,4-tetrahydroisoquinoline-7-sulfonamide difumarate monohydrate]
- NPI Abberant motor behavior, Ch from bl W12 (0.5 mg/day with donepezil): −0.08
- NPI Abberant motor behavior, Ch from bl W24 (0.5 mg/day with donepezil): 0.42
- NPI Agitation/Aggression, Ch from bl W12 (0.5 mg/day with donepezil): 0.23
- NPI Agitation/Aggression, Ch from bl W24 (0.5 mg/day with donepezil): 0.04
- NPI Anxiety, Ch from bl W12 (0.5 mg/day with donepezil): 0.20
- NPI Anxiety, Ch from bl W24 (0.5 mg/day with donepezil): 0.16
- NPI Apathy/Indifference, Ch from bl W12 (0.5 mg/day with donepezil): −0.21
- NPI Apathy/Indifference, Ch from bl W24 (0.5 mg/day with donepezil): 0.13
- NPI Appetite/Eating changes, Ch from bl W12 (0.5 mg/day with donepezil): −0.58
- NPI Appetite/Eating changes, Ch from bl W24 (0.5 mg/day with donepezil): −0.33
- NPI Delusions, Ch from bl W12 (0.5 mg/day with donepezil): 0.31
- NPI Delusions, Ch from bl W24 (0.5 mg/day with donepezil): 0.28
- NPI Depression/Dysphoria, Ch from bl W12 (0.5 mg/day with donepezil): 0.00
- NPI Depression/Dysphoria, Ch from bl W24 (0.5 mg/day with donepezil): 0.07
- NPI Disinhibition, Ch from bl W12 (0.5 mg/day with donepezil): −0.13
- NPI Disinhibition, Ch from bl W24 (0.5 mg/day with donepezil): −0.06
- NPI Elation/Euphoria, Ch from bl W12 (0.5 mg/day with donepezil): 0.15
- NPI Elation/Euphoria, Ch from bl W24 (0.5 mg/day with donepezil): 0.20
- NPI Hallucination, Ch from bl W12 (0.5 mg/day with donepezil): 0.05
- NPI Hallucination, Ch from bl W24 (0.5 mg/day with donepezil): −0.06
- NPI Irritability lability, Ch from bl W12 (0.5 mg/day with donepezil): −0.07
- NPI Irritability lability, Ch from bl W24 (0.5 mg/day with donepezil): 0.09
- NPI Sleep and nighttime behavior, Ch from bl W12 (0.5 mg/day with donepezil): 0.30
- NPI Sleep and nighttime behavior, Ch from bl W24 (0.5 mg/day with donepezil): −0.23
- NPI Abberant motor behavior, Ch from bl W12 (2 mg/day with donepezil): 0.25
- NPI Abberant motor behavior, Ch from bl W24 (2 mg/day with donepezil): 0.56
- NPI Agitation/Aggression, Ch from bl W12 (2 mg/day with donepezil): 0.48
- NPI Agitation/Aggression, Ch from bl W24 (2 mg/day with donepezil): 0.68
- NPI Anxiety, Ch from bl W12 (2 mg/day with donepezil): −0.03
- NPI Anxiety, Ch from bl W24 (2 mg/day with donepezil): 0.15
- NPI Apathy/Indifference, Ch from bl W12 (2 mg/day with donepezil): 0.26
- NPI Apathy/Indifference, Ch from bl W24 (2 mg/day with donepezil): 0.92
- NPI Appetite/Eating changes, Ch from bl W12 (2 mg/day with donepezil): −0.18
- NPI Appetite/Eating changes, Ch from bl W24 (2 mg/day with donepezil): −0.02
- NPI Delusions, Ch from bl W12 (2 mg/day with donepezil): −0.05
- NPI Delusions, Ch from bl W24 (2 mg/day with donepezil): 0.21
- NPI Depression/Dysphoria, Ch from bl W12 (2 mg/day with donepezil): 0.35
- NPI Depression/Dysphoria, Ch from bl W24 (2 mg/day with donepezil): 0.12
- NPI Disinhibition, Ch from bl W12 (2 mg/day with donepezil): 0.08
- NPI Disinhibition, Ch from bl W24 (2 mg/day with donepezil): 0.03
- NPI Elation/Euphoria, Ch from bl W12 (2 mg/day with donepezil): −0.06
- NPI Elation/Euphoria, Ch from bl W24 (2 mg/day with donepezil): 0.07
- NPI Hallucination, Ch from bl W12 (2 mg/day with donepezil): 0.02
- NPI Hallucination, Ch from bl W24 (2 mg/day with donepezil): 0.02
- NPI Irritability lability, Ch from bl W12 (2 mg/day with donepezil): 0.47
- NPI Irritability lability, Ch from bl W24 (2 mg/day with donepezil): 0.63
- NPI Sleep and nighttime behavior, Ch from bl W12 (2 mg/day with donepezil): 0.33
- NPI Sleep and nighttime behavior, Ch from bl W24 (2 mg/day with donepezil): 0.19
- NPI Abberant motor behavior, Ch from bl W12 (5 mg/day with donepezil): −0.11
- NPI Abberant motor behavior, Ch from bl W24 (5 mg/day with donepezil): −0.69
- NPI Agitation/Aggression, Ch from bl W12 (5 mg/day with donepezil): −0.12
- NPI Agitation/Aggression, Ch from bl W24 (5 mg/day with donepezil): 0.58
- NPI Anxiety, Ch from bl W12 (5 mg/day with donepezil): 0.12
- NPI Anxiety, Ch from bl W24 (5 mg/day with donepezil): 0.12
- NPI Apathy/Indifference, Ch from bl W12 (5 mg/day with donepezil): 0.09
- NPI Apathy/Indifference, Ch from bl W24 (5 mg/day with donepezil): 0.10
- NPI Appetite/Eating changes, Ch from bl W12 (5 mg/day with donepezil): −0.17
- NPI Appetite/Eating changes, Ch from bl W24 (5 mg/day with donepezil): 0.1
- NPI Delusions, Ch from bl W12 (5 mg/day with donepezil): 0.00
- NPI Delusions, Ch from bl W24 (5 mg/day with donepezil): 0.04
- NPI Depression/Dysphoria, Ch from bl W12 (5 mg/day with donepezil): −0.07
- NPI Depression/Dysphoria, Ch from bl W24 (5 mg/day with donepezil): 0.25
- NPI Disinhibition, Ch from bl W12 (5 mg/day with donepezil): 0.00
- NPI Disinhibition, Ch from bl W24 (5 mg/day with donepezil): 0.06
- NPI Elation/Euphoria, Ch from bl W12 (5 mg/day with donepezil): 0.14
- NPI Elation/Euphoria, Ch from bl W24 (5 mg/day with donepezil): 0.10
- NPI Hallucination, Ch from bl W12 (5 mg/day with donepezil): −0.14
- NPI Hallucination, Ch from bl W24 (5 mg/day with donepezil): −0.15
- NPI Irritability lability, Ch from bl W12 (5 mg/day with donepezil): 0.03
- NPI Irritability lability, Ch from bl W24 (5 mg/day with donepezil): 0.47
- NPI Sleep and nighttime behavior, Ch from bl W12 (5 mg/day with donepezil): 0.08
- NPI Sleep and nighttime behavior, Ch from bl W24 (5 mg/day with donepezil): 0.71
- domains of the NPI, overall (0.5, 2, 5 mg/day with donepezil): No relevant modification
